Measurements as given in patent US11000033B2, “Ketone or oxime compound, and herbicide” (NISSAN CHEMICAL CORPORATION, priority 2014, dated 2021).

Tests used:
Assay type in all cases: in vivo
[1] = tested on: Echinochloa oryzacola Vasing.; test: Test Example 1: herbicidal activity, application before weed generation in submerged conditions (symbol A); details: application herbicide amount 320 g/ha
In short: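 Scores run 0 to 5 by herbicidal ratio, with 5 meaning 90% or more and 0 meaning 5% or lower, read 3 weeks after treatment. Compound was applied as a diluted emulsion to the water surface of submerged alluvial-soil pots on the day weed seeds were sown.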

[2] = tested on: Echinochloa oryzacola Vasing.; test: Test Example 2: herbicidal activity, application during weed generation in submerged conditions (symbol A); details: Table 23; application herbicide amount 320 g/ha; grade 0-5 by criteria of Test Example 1
In short: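 Compound was applied as a water-diluted emulsion into the standing water of flooded pots (4 cm) once co-sown weeds reached one to two leaves. Greenhouse temperature was 25° C. to 30° C., soil was alluvial, and each species was rated visually after 3 weeks.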

[3] = tested on: Echinochloa crus-galli var. crus-galli; test: Test Example 4: herbicidal effect by soil treatment (symbol H); details: application herbicide amount 320 g/ha
In short: (§1)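 Seeds were sown in sterilized diluvial soil, covered with about 1.5 cm of soil, and the soil surface was sprayed with a water-diluted emulsion of the compound at a predetermined rate. Plants grew in a greenhouse at 25° C. to 30° C.; effects were scored visually 3 weeks after application.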

[4] = tested on: Avena fatua; test: Test Example 4: herbicidal effect by soil treatment (symbol I); details: application herbicide amount 320 g/ha
In short: as §1

[5] = tested on: Alopecurus myosuroides; test: Test Example 4: herbicidal effect by soil treatment (symbol J); details: application herbicide amount 320 g/ha
In short: as §1

[6] = tested on: Lolium multiflorum Lam.; test: Test Example 4: herbicidal effect by soil treatment (symbol K); details: application herbicide amount 320 g/ha
In short: as §1

[7] = tested on: corn; test: Test Example 4: effect on crop by soil treatment (symbol c); details: application herbicide amount 320 g/ha
In short: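 Grown at 25° C. to 30° C. in a greenhouse, the crops came from seed sown spot-wise in sterilized diluvial soil under roughly 1.5 cm of covering soil.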

[8] = tested on: rapeseed; test: Test Example 4: effect on crop by soil treatment (symbol g); details: application herbicide amount 320 g/ha
In short: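 The test used sterilized diluvial soil. Seed was set down in spots and overlaid with about 1.5 cm of soil before growth in a greenhouse kept at 25° C. to 30° C.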

[9] = tested on: Setaria viridis; test: Test Example 5: herbicidal effect by foliage application, plastic box (symbol G); details: 320 g/ha, 3 weeks after application
In short: (§2)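 Effect is rated 3 weeks after a foliar spray of water-diluted emulsion concentrate at a predetermined herbicide amount. Plants had grown 14 days in a 25° C. to 30° C. greenhouse from seed in sterilized diluvial soil.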

[10] = tested on: Lolium multiflorum Lam.; test: Test Example 5: herbicidal effect by foliage application, plastic box (symbol K); details: 320 g/ha, 3 weeks after application
In short: as §2

[11] = tested on: Abutilon theophrasti; test: Test Example 5: herbicidal effect by foliage application, plastic box (symbol M); details: 320 g/ha, 3 weeks after application
In short: as §2

[12] = tested on: Amaranthus retroflexus; test: Test Example 5: herbicidal effect by foliage application, plastic box (symbol N); details: 320 g/ha, 3 weeks after application
In short: as §2

[13] = tested on: Stellaria media; test: Test Example 5: herbicidal effect by foliage application, plastic box (symbol P); details: 320 g/ha, 3 weeks after application
In short: as §2

[14] = tested on: Galium spurium; test: Test Example 5: herbicidal effect by foliage application, plastic box (symbol Q); details: 320 g/ha, 3 weeks after application
In short: as §2

[15] = tested on: Veronica persica; test: Test Example 5: herbicidal effect by foliage application, plastic box (symbol R); details: 320 g/ha, 3 weeks after application
In short: as §2

[16] = tested on: rice plant; test: Test Example 5: effect on crop by foliage application, plastic box (symbol b); details: 320 g/ha, 3 weeks after application
In short: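 Foliage-application test plants come from spot sowing in sterilized diluvial soil under a soil layer of about 1.5 cm, grown at 25° C. to 30° C. in a greenhouse.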

SMILES	Herbicidal effect grade, A: Echinochloa oryzacola Vasing. [1]	Herbicidal effect grade, A: Echinochloa oryzacola Vasing. [2]	H (Echinochloa crus-galli var. crus-galli) herbicidal effect grade [3]	I (Avena fatua) herbicidal effect grade [4]	J (Alopecurus myosuroides) herbicidal effect grade [5]	K (Lolium multiflorum Lam.) herbicidal effect grade [6]	c (corn) effect on crop grade [7]	g (rapeseed) effect on crop grade [8]	G: Setaria viridis, herbicidal effect grade [9]	K: Lolium multiflorum Lam., herbicidal effect grade [10]	M: Abutilon theophrasti, herbicidal effect grade [11]	N: Amaranthus retroflexus, herbicidal effect grade [12]	P: Stellaria media, herbicidal effect grade [13]	Q: Galium spurium, herbicidal effect grade [14]	R: Veronica persica, herbicidal effect grade [15]	b: directly sowed rice plant, effect on crop grade [16]
CCON=C(C)CC1CC(O)=C(c2c(C)cc(C)cc2C)C1=O (centres unmarked) [1-003]	5 (Herbicidal ratio of 90% or more (almost completely withered))	5 (Herbicidal ratio of 90% or more (almost completely withered))	5 (Herbicidal ratio of 90% or more (almost completely withered))	4 (Herbicidal ratio of 70% or higher and lower than 90%)	5 (Herbicidal ratio of 90% or more (almost completely withered))	5 (Herbicidal ratio of 90% or more (almost completely withered))	5 (Herbicidal ratio of 90% or more (almost completely withered))	4 (Herbicidal ratio of 70% or higher and lower than 90%)	5 (Herbicidal ratio of 90% or more (almost completely withered))	5 (Herbicidal ratio of 90% or more (almost completely withered))	4 (Herbicidal ratio of 70% or higher and lower than 90%)	3 (Herbicidal ratio of 40% or higher and lower than 70%)	2 (Herbicidal ratio of 20% or higher and lower than 40%)	3 (Herbicidal ratio of 40% or higher and lower than 70%)	3 (Herbicidal ratio of 40% or higher and lower than 70%)	5 (Herbicidal ratio of 90% or more (almost completely withered))
CON=C(C)CC1CC(OC(=O)COc2ccccc2)=C(c2c(C)cc(C)cc2C)C1=O (centres unmarked) [1-043]	5 (Herbicidal ratio of 90% or more (almost completely withered))	5 (Herbicidal ratio of 90% or more (almost completely withered))	5 (Herbicidal ratio of 90% or more (almost completely withered))	4 (Herbicidal ratio of 70% or higher and lower than 90%)	5 (Herbicidal ratio of 90% or more (almost completely withered))	5 (Herbicidal ratio of 90% or more (almost completely withered))	4 (Herbicidal ratio of 70% or higher and lower than 90%)	5 (Herbicidal ratio of 90% or more (almost completely withered))	5 (Herbicidal ratio of 90% or more (almost completely withered))	5 (Herbicidal ratio of 90% or more (almost completely withered))	4 (Herbicidal ratio of 70% or higher and lower than 90%)	3 (Herbicidal ratio of 40% or higher and lower than 70%)	4 (Herbicidal ratio of 70% or higher and lower than 90%)	3 (Herbicidal ratio of 40% or higher and lower than 70%)	2 (Herbicidal ratio of 20% or higher and lower than 40%)	5 (Herbicidal ratio of 90% or more (almost completely withered))
CON=C(C)CC1CC(OC(=O)C(C)Cl)=C(c2c(C)cc(C)cc2C)C1=O (centres unmarked) [1-042]	0 (Herbicidal ratio of 5% or lower (almost no effect))	5 (Herbicidal ratio of 90% or more (almost completely withered))	5 (Herbicidal ratio of 90% or more (almost completely withered))	3 (Herbicidal ratio of 40% or higher and lower than 70%)	5 (Herbicidal ratio of 90% or more (almost completely withered))	5 (Herbicidal ratio of 90% or more (almost completely withered))	3 (Herbicidal ratio of 40% or higher and lower than 70%)	4 (Herbicidal ratio of 70% or higher and lower than 90%)	5 (Herbicidal ratio of 90% or more (almost completely withered))	5 (Herbicidal ratio of 90% or more (almost completely withered))	3 (Herbicidal ratio of 40% or higher and lower than 70%)	0 (Herbicidal ratio of 5% or lower (almost no effect))	0 (Herbicidal ratio of 5% or lower (almost no effect))	0 (Herbicidal ratio of 5% or lower (almost no effect))	1 (Herbicidal ratio of 5% or higher and lower than 20%)	5 (Herbicidal ratio of 90% or more (almost completely withered))
CON=CCC1CC(O)=C(c2c(C)cc(C)cc2C)C1=O (centres unmarked) [1-050]	4 (Herbicidal ratio of 70% or higher and lower than 90%)	3 (Herbicidal ratio of 40% or higher and lower than 70%)	4 (Herbicidal ratio of 70% or higher and lower than 90%)	0 (Herbicidal ratio of 5% or lower (almost no effect))	0 (Herbicidal ratio of 5% or lower (almost no effect))	4 (Herbicidal ratio of 70% or higher and lower than 90%)	0 (Herbicidal ratio of 5% or lower (almost no effect))	0 (Herbicidal ratio of 5% or lower (almost no effect))	5 (Herbicidal ratio of 90% or more (almost completely withered))	5 (Herbicidal ratio of 90% or more (almost completely withered))	3 (Herbicidal ratio of 40% or higher and lower than 70%)	0 (Herbicidal ratio of 5% or lower (almost no effect))	0 (Herbicidal ratio of 5% or lower (almost no effect))	0 (Herbicidal ratio of 5% or lower (almost no effect))	0 (Herbicidal ratio of 5% or lower (almost no effect))	5 (Herbicidal ratio of 90% or more (almost completely withered))
CSCCON=C(C)CC1CC(O)=C(c2c(C)cc(C)cc2C)C1=O (centres unmarked) [1-029]	4 (Herbicidal ratio of 70% or higher and lower than 90%)	4 (Herbicidal ratio of 70% or higher and lower than 90%)	5 (Herbicidal ratio of 90% or more (almost completely withered))	1 (Herbicidal ratio of 5% or higher and lower than 20%)	3 (Herbicidal ratio of 40% or higher and lower than 70%)	5 (Herbicidal ratio of 90% or more (almost completely withered))	0 (Herbicidal ratio of 5% or lower (almost no effect))	3 (Herbicidal ratio of 40% or higher and lower than 70%)	5 (Herbicidal ratio of 90% or more (almost completely withered))	5 (Herbicidal ratio of 90% or more (almost completely withered))	1 (Herbicidal ratio of 5% or higher and lower than 20%)	0 (Herbicidal ratio of 5% or lower (almost no effect))	3 (Herbicidal ratio of 40% or higher and lower than 70%)	3 (Herbicidal ratio of 40% or higher and lower than 70%)	1 (Herbicidal ratio of 5% or higher and lower than 20%)	5 (Herbicidal ratio of 90% or more (almost completely withered))
